Reference: PubChem BioAssay AID1918995 (Molecular Pharmacology Branch, DTP, NCI, 2023)
Where “and” joins values, the source holds several entries; their conditions need not be identical. Identical values can stand only once.

Tested on: 324938-238-R-J1-PDC complex spheroid growth, % test/control
Experiment: Anticancer human tumor 324938-238-R-J1-PDC patient-derived bladder carcinoma cell line growth inhibition [AhR]
Settings: for viability, T/C: stronger effect = lower value; active = viability on the fitted dose curve at most 10% of control; inactive = the rest
Text: Multicellular complex tumor spheroid response to aryl hydrocarbon receptor antagonists in combination with a variety of drugs and investigational agents in selected tumor cell lines
The current study was undertaken to assess response to aryl hydrocarbon receptor antagonists in combination with standard-of-care drugs and investigational agents in solid tumor complex spheroid models. Complex spheroids include a stromal component modeled by human endothelial cells (HUVEC) and fibroblasts modeled by human mesenchymal stem cells (MSCs). The concentration ranges selected for each drug and investigational agent were based upon clinically achievable concentrations if the clinical Cmax of the agent was known.
Compounds. The drugs and investigational agents: BAY 2416964 (NSC825713), GNF351 (NSC835774), CH-223191 (NSC835775), CPI-455 (NSC825282), aza-TdCyd (NSC777586), decitabine (NSC127716), belinostat (NSC758774), entinostat (NSC756642), pevonedistat (NSC761192), tazemetostat (NSC777109), talazoparib (NSC765396), olaparib (NSC753686), selinexor (NSC780203), nedisertib (M3814, NSC802822), bortezomib (NSC756655), venetoclax (NSC766270), doxorubicin (NSC123127), elimusertib (BAY189344, NSC800525), ceralasertib (AZD6738, NSC777638), TAK-243 (NSC785004), alisertib (NSC759677), etoposide (NSC141540), topotecan (NSC609699), eribulin (NSC707389), gemcitabine (NSC613327), carboplatin (NSC241240), cisplatin (NSC119875), and SN-38 (NSC673596) were obtained from the National Cancer Institute (NCI) Developmental Therapeutics Program Chemical Repository (32). The FDA-approved anticancer drug set is available from the Developmental Therapeutics Program at https://dtp.cancer.gov/organization/dscb/obtaining/available plates.htm. […] The stock solutions were prepared in dimethyl sulfoxide (DMSO, Sigma-Aldrich, St. Louis, MO, cat. D2650), except for the platinum compounds which were prepared in saline (Quality Biological, Gaithersburg, MD, cat. 114-055-101), at 800-fold the tested concentration and stored at -70 degrees C prior to their use. All drugs and investigational agents were tested over a range starting from a high concentration at or near the clinical Cmax and decreasing in half-log increments. If the clinical Cmax for an agent had not been determined, the highest concentration tested was 10 microM (Table 1).
Cell Culture. All cells were maintained in an incubator at 37 degrees C and 5% CO2 with 95% humidity. The PDC lines were cultured according to standard operating procedures established by the NCI PDMR (https://pdmr.cancer.gov). Briefly, all PDCs were thawed and cultured in Matrigel-coated flasks prepared with a working solution of 1X Ham's F-12 nutrient mix, without supplementation (Invitrogen, Waltham, MA, cat. 11765054), 100 U/mL penicillin-streptomycin (Invitrogen, cat. 15140122), and 2.5% Matrigel (Corning Inc., Corning, NY, cat. 354248) for the first three passages. All PDCs were cultured in complete DMEM/F-12 media containing advanced DMEM/F-12 (Invitrogen, cat. 12634028), 4.9% defined fetal bovine serum, heat inactivated (HyClone Laboratories Inc., Logan, UT, cat. SH30070.03HI), 389 ng/mL hydrocortisone (Sigma-Aldrich, cat. H4001), 9.7 ng/mL human EGF recombinant protein (Invitrogen, cat. PHG0313), 23.4 microg/mL adenine (Sigma-Aldrich, cat. A2786), 97.3 U/mL penicillin-streptomycin (Invitrogen, cat. 15140122), 1.9 mM L-glutamine (Invitrogen, cat. 25030081), and 9.7 microM Y-27632 dihydrochloride (Tocris Bioscience, Bristol, United Kingdom, cat. 1254). The PDCs were cultured in complete DMEM/F12 media without 10 microM Y-27632 dihydrochloride for at least two passages prior to the screen. The established cell lines NCI-H1341 and […] were cultured in DMEM/F-12, HEPES (Invitrogen, cat. 11330032), 5% defined fetal bovine serum (HyClone Laboratories Inc., cat. SH30070.03), ITS premix universal culture supplement [insulin (5 microg/mL), transferrin (5 microg/mL), and selenious acid (5 ng/mL)] […]
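Also: spheroids exposed to agents for seven days before viability read.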

COc1cccc2c1C(=O)c1c(O)c3c(c(O)c1C2=O)CC(O)(C(=O)CO)CC3OC1CC(N)C(O)C(C)O1 (configuration not stated) + Cc1cncc(-c2nc(NCCc3c[nH]c4ccccc34)c3ncn(C(C)C)c3n2)c1
0.291 µM: IC50 (curve of first compound, second compound 1 µM)
inactive: viability, T/C (second compound 0.1 µM, first compound 0.0316 µM) 84.2% | viability, T/C (second compound 0.1 µM, first compound 0.1 µM) 95.7% | viability, T/C (second compound 0.1 µM, first compound 0.316 µM) 52.8% | viability, T/C (second compound 0.316 µM, first compound 0.0316 µM) 65.7% | viability, T/C (second compound 0.316 µM, first compound 0.1 µM) 94.2% | viability, T/C (second compound 0.316 µM, first compound 0.316 µM) 57.3% | viability, T/C (second compound 1 µM, first compound 0.0316 µM) 90.7% | viability, T/C (second compound 1 µM, first compound 0.1 µM) 102% | viability, T/C (second compound 1 µM, first compound 0.316 µM) 46.3% | viability, T/C (second compound 3.16 µM, first compound 0.0316 µM) 81.8% | viability, T/C (second compound 3.16 µM, first compound 0.1 µM) 62.1% | viability, T/C (second compound 3.16 µM, first compound 0.316 µM) 38.9%
0.367 µM: IC50 (curve of first compound, second compound 0.316 µM)
0.336 µM: IC50 (curve of first compound, second compound 0.1 µM)
0.181 µM: IC50 (curve of first compound, second compound 3.16 µM)
< 0.0316 µM: IC50 (curve of first compound, second compound 10 µM)
active: viability, T/C (second compound 0.1 µM, first compound 1 µM) 0.98% | viability, T/C (second compound 0.1 µM, first compound 3.16 µM) 0.76% | viability, T/C (second compound 0.1 µM, first compound 10 µM) 0.41% | viability, T/C (second compound 0.316 µM, first compound 1 µM) 0.94% | viability, T/C (second compound 0.316 µM, first compound 3.16 µM) 0.57% | viability, T/C (second compound 0.316 µM, first compound 10 µM) 0.38% | viability, T/C (second compound 1 µM, first compound 1 µM) 0.36% | viability, T/C (second compound 1 µM, first compound 3.16 µM) 1.27% | viability, T/C (second compound 1 µM, first compound 10 µM) 0.47% | viability, T/C (second compound 3.16 µM, first compound 1 µM) 0.31% | viability, T/C (second compound 3.16 µM, first compound 3.16 µM) 1.98% | viability, T/C (second compound 3.16 µM, first compound 10 µM) 0.43% | viability, T/C (second compound 10 µM, first compound 0.0316 µM) 4.55% | viability, T/C (second compound 10 µM, first compound 0.1 µM) 12.7% | viability, T/C (second compound 10 µM, first compound 0.316 µM) 1.27% | viability, T/C (second compound 10 µM, first compound 1 µM) 0.29% | viability, T/C (second compound 10 µM, first compound 3.16 µM) 0.45% | viability, T/C (second compound 10 µM, first compound 10 µM) 0.62%

CC[C@@]1(O)C(=O)OCc2c1cc1n(c2=O)Cc2cc3c(CN(C)C)c(O)ccc3nc2-1
> 0.1 µM and 0.0213 µM and 0.0201 µM: IC50 (curve of compound)
inactive: viability, T/C (compound 0.000316 µM) 96% and 93.1% and 103% | viability, T/C (compound 0.001 µM) 96.2% and 106% and 108% | viability, T/C (compound 0.00316 µM) 66.5% and 84.8% and 87.8% | viability, T/C (compound 0.01 µM) 82.1% and 74.2% and 73.3% | viability, T/C (compound 0.0316 µM) 125% and 37.5% and 35.2% | viability, T/C (compound 0.1 µM) 106% and 17.9% and 16.8%
